Measured values as given in PubChem BioAssay (NCI).
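These data come from cells grown in 96-well plates and exposed to compound for 48 hours at five concentrations. At the TGI there is no net growth.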

system: NCI-H460 lung; experiment: inhibition of tumour cell growth, NCI panel, 48 h

`O=C(NCc1ccccc1)c1cc2ccccc2oc1=Nc1cccc(C(F)(F)F)c1` and `CC1=NN(C(=O)Cc2ccccc2)C(=O)/C1=C\c1ccc(O)cc1` cannot be ordered by TGI: > 100 µM for the first, > 100 µM for the second.

With `CC1=CC2C3(C)C(C)(C(C)=CP3(=O)c3c(C(C)C)cc(C(C)C)cc3C(C)C)C1P2(=O)c1c(C(C)C)cc(C(C)C)cc1C(C)C` (stereo not drawn) the TGI was 3.01 µM.

system: DLD-1 colon; experiment: inhibition of tumour cell growth, NCI panel, 48 h

`Cc1ccc2c(c1)CN1c3ccc(C)cc3CN2C1c1ccccc1O` and `CC1=NN(C(=O)Cc2ccccc2)C(=O)/C1=C\c1ccc(O)cc1` cannot be ordered by TGI: > 100 µM for the first, > 100 µM for the second.

`N#CNC(N)=NCc1ccccc1` and `CC1=N/C(=C\c2ccc(/C=C3/N=C(C)OC3=O)cc2)C(=O)O1` cannot be ordered by TGI: > 100 µM for the first, > 100 µM for the second.

system: OVCAR-4 ovarian; experiment: inhibition of tumour cell growth, NCI panel, 48 h

`O=C1Oc2ccccc2C(=O)/C1=C1/C=C(c2ccccc2)SS1` and `O=C(NCc1ccccc1)c1cc2ccccc2oc1=Nc1cccc(C(F)(F)F)c1` cannot be ordered by TGI: > 100 µM for the first, > 100 µM for the second.

`Cc1ccc2c(c1)CN1c3ccc(C)cc3CN2C1c1ccccc1O` and `CC1=NN(C(=O)Cc2ccccc2)C(=O)/C1=C\c1ccc(O)cc1` cannot be ordered by TGI: > 100 µM for the first, > 100 µM for the second.

`N#CNC(N)=NCc1ccccc1` and `CC1=N/C(=C\c2ccc(/C=C3/N=C(C)OC3=O)cc2)C(=O)O1` cannot be ordered by TGI: > 100 µM for the first, > 100 µM for the second.

For `CC1=CC2C3(C)C(C)(C(C)=CP3(=O)c3c(C(C)C)cc(C(C)C)cc3C(C)C)C1P2(=O)c1c(C(C)C)cc(C(C)C)cc1C(C)C` (stereo not drawn), the TGI was 16.1 µM.

system: SF-295 CNS; experiment: inhibition of tumour cell growth, NCI panel, 48 h

`O=C1Oc2ccccc2C(=O)/C1=C1/C=C(c2ccccc2)SS1` and `O=C(NCc1ccccc1)c1cc2ccccc2oc1=Nc1cccc(C(F)(F)F)c1` cannot be ordered by TGI: > 100 µM for the first, > 100 µM for the second.

`Cc1ccc2c(c1)CN1c3ccc(C)cc3CN2C1c1ccccc1O` and `CC1=NN(C(=O)Cc2ccccc2)C(=O)/C1=C\c1ccc(O)cc1` cannot be ordered by TGI: > 100 µM for the first, > 100 µM for the second.

Compared with `N#CNC(N)=NCc1ccccc1`, `CC1=CC2C3(C)C(C)(C(C)=CP3(=O)c3c(C(C)C)cc(C(C)C)cc3C(C)C)C1P2(=O)c1c(C(C)C)cc(C(C)C)cc1C(C)C` (stereo not drawn) is lower in TGI: > 100 µM for the first, 6.72 µM for the second.

system: RPMI-8226 leukemia; experiment: inhibition of tumour cell growth, NCI panel, 48 h

`O=C1Oc2ccccc2C(=O)/C1=C1/C=C(c2ccccc2)SS1` and `O=C(NCc1ccccc1)c1cc2ccccc2oc1=Nc1cccc(C(F)(F)F)c1` cannot be ordered by TGI: > 100 µM for the first, > 100 µM for the second.

`Cc1ccc2c(c1)CN1c3ccc(C)cc3CN2C1c1ccccc1O` and `CC1=NN(C(=O)Cc2ccccc2)C(=O)/C1=C\c1ccc(O)cc1` cannot be ordered by TGI: > 100 µM for the first, > 100 µM for the second.

`N#CNC(N)=NCc1ccccc1` and `CC1=N/C(=C\c2ccc(/C=C3/N=C(C)OC3=O)cc2)C(=O)O1` cannot be ordered by TGI: > 100 µM for the first, > 100 µM for the second.

Compound `CC1=CC2C3(C)C(C)(C(C)=CP3(=O)c3c(C(C)C)cc(C(C)C)cc3C(C)C)C1P2(=O)c1c(C(C)C)cc(C(C)C)cc1C(C)C` (stereo not drawn) has a TGI of 3.02 µM.

system: RXF 393 renal; experiment: inhibition of tumour cell growth, NCI panel, 48 h

`O=C1Oc2ccccc2C(=O)/C1=C1/C=C(c2ccccc2)SS1` and `O=C(NCc1ccccc1)c1cc2ccccc2oc1=Nc1cccc(C(F)(F)F)c1` cannot be ordered by TGI: > 100 µM for the first, > 100 µM for the second.

First: Cc1ccc2c(c1)CN1c3ccc(C)cc3CN2C1c1ccccc1O
Second: CC1=NN(C(=O)Cc2ccccc2)C(=O)/C1=C\c1ccc(O)cc1
The TGI of the first is lower: 61.2 µM for the first, > 100 µM for the second.

First: CC1=N/C(=C\c2ccc(/C=C3/N=C(C)OC3=O)cc2)C(=O)O1
Second: CC1=CC2C3(C)C(C)(C(C)=CP3(=O)c3c(C(C)C)cc(C(C)C)cc3C(C)C)C1P2(=O)c1c(C(C)C)cc(C(C)C)cc1C(C)C (stereo not drawn)
The TGI of the first is higher: > 100 µM for the first, 15.8 µM for the second.

system: A549 NSCLC; experiment: inhibition of tumour cell growth, NCI panel, 48 h

`O=C1Oc2ccccc2C(=O)/C1=C1/C=C(c2ccccc2)SS1` and `O=C(NCc1ccccc1)c1cc2ccccc2oc1=Nc1cccc(C(F)(F)F)c1` cannot be ordered by TGI: > 100 µM for the first, > 100 µM for the second.

`Cc1ccc2c(c1)CN1c3ccc(C)cc3CN2C1c1ccccc1O` and `CC1=NN(C(=O)Cc2ccccc2)C(=O)/C1=C\c1ccc(O)cc1` cannot be ordered by TGI: > 100 µM for the first, > 100 µM for the second.

`N#CNC(N)=NCc1ccccc1` and `CC1=N/C(=C\c2ccc(/C=C3/N=C(C)OC3=O)cc2)C(=O)O1` cannot be ordered by TGI: > 100 µM for the first, > 100 µM for the second.

For `CC1=CC2C3(C)C(C)(C(C)=CP3(=O)c3c(C(C)C)cc(C(C)C)cc3C(C)C)C1P2(=O)c1c(C(C)C)cc(C(C)C)cc1C(C)C` (stereo not drawn), the TGI was 9.08 µM.

system: SK-MEL-2 melanoma; experiment: inhibition of tumour cell growth, NCI panel, 48 h

`O=C1Oc2ccccc2C(=O)/C1=C1/C=C(c2ccccc2)SS1` and `O=C(NCc1ccccc1)c1cc2ccccc2oc1=Nc1cccc(C(F)(F)F)c1` cannot be ordered by TGI: > 100 µM for the first, > 100 µM for the second.

`Cc1ccc2c(c1)CN1c3ccc(C)cc3CN2C1c1ccccc1O` and `CC1=NN(C(=O)Cc2ccccc2)C(=O)/C1=C\c1ccc(O)cc1` cannot be ordered by TGI: > 100 µM for the first, > 100 µM for the second.

`N#CNC(N)=NCc1ccccc1` and `CC1=N/C(=C\c2ccc(/C=C3/N=C(C)OC3=O)cc2)C(=O)O1` cannot be ordered by TGI: > 100 µM for the first, > 100 µM for the second.

Work on `CC1=CC2C3(C)C(C)(C(C)=CP3(=O)c3c(C(C)C)cc(C(C)C)cc3C(C)C)C1P2(=O)c1c(C(C)C)cc(C(C)C)cc1C(C)C` (stereo not drawn) yielded a TGI of 3.37 µM.

system: NCI-H522 lung; experiment: inhibition of tumour cell growth, NCI panel, 48 h

`O=C1Oc2ccccc2C(=O)/C1=C1/C=C(c2ccccc2)SS1` was tested, and the TGI was > 100 µM.
